Experimental data published in patent US6069172A, “(R)-2-(3-benzoylphenyl) propionic acid salts and pharmaceutical preparations containing them” (priority 1998, dated 2000).
Structures can show the parent of a compound that is named as a salt. Where two headings read alike, the source gives them in different places.

What was measured:
[1] = test system: human PMN leukocytes; experiment: [Ca^++ ]i increase induced by IL-8 in human PMN leukocytes; format: cell-based; conditions: IL-8 50 ng/ml, % of basal [Ca^++ ]i (basal 100%), no drug 302 ± 11
Procedure: The results reported in Table 1 are cumulative data obtained from 8 trials (8 donors who gave their explicit consent, 3 to 7 cells per specimen). […] The responses, expressed as percent of basal value of [Ca^++ ]i, are the mean from all responsive cells; standard error of the mean (±SEM) and number of replications (in brackets) are also reported. […] IL-8 concentration was 50 ng/ml.

[2] = test system: Ca^++ channels, human PMN neutrophils; experiment: competition study with lanthanum ions: [Ca^++ ]i increase induced by IL-8, role of Ca^++ channels; format: cell-based; conditions: ketoprofen L-lysine salt 10^-8 M; La^+++ 10 μM; IL-8 50 ng/ml; % of basal (100%)
Procedure: Results reported in Table 2 are the cumulative values from 3 trials (3 donors, 3-7 cells per specimen). […] Responses are expressed as percent of basal [Ca^++ ]i value and are the mean from the values of all responsive cells. Standard error of the mean (SEM) and number of replications (in brackets) are also reported. […] The concentration of ketoprofen L-lysine salt was 10^-8 M, that of La^+++ 10 μM, and that of IL-8 50 ng/ml.

[3] = test system: human PMN neutrophils; experiment: [Ca^++ ]i increase induced by FMLP in human PMN neutrophils; format: cell-based; conditions: FLMP 10^-7 M; % of basal (100%); no treatment 208 ± 7
From the text: (§1) Results are expressed as percent of the basal value of [Ca^++ ]i and are the mean from the values of all responsive cells. Standard error of the mean (SEM) and number of replications (n, in brackets) are also reported.

[4] = test system: human PMN neutrophils; experiment: [Ca^++ ]i increase induced by C5a in human PMN neutrophils; format: cell-based; conditions: for C5a [Ca^++ ]i (% ± SEM): C5a 10^-8 M, % of basal (100%), no treatment 198 ± 10; for percent of non responsive cells: C5a stimulation and treatment with the L-lysine salts
From the text: as §1

[5] = test system: human PMN neutrophils; experiment: IL-8-stimulated human PMN neutrophil degranulation (elastase release), FIG. 1; format: cell-based; conditions: IL-8 50 ng/ml, cytoclasin B 10^-5 M, 30 min 37° C; FIG. 1, ** p<0.05 against IL-8
Procedure: Human PMN neutrophils (10^7 /ml) were stimulated in the presence of cytoclasin B (10^-5 M) by adding IL-8 (50 ng/ml) and incubating them for 30 min at 37° C. La^+++ was added 5 min before IL-8 and the lysine salts of (R)- and (S)-ketoprofen 15 min before IL-8. Degranulation was evaluated based on the amount of elastase released in the cell-free surnatant and is expressed as DOD×10^3 /min.

[6] = test system: hyperalgesia; experiment: animal or person; conditions: for inhibitory effect on hyperalgesia: 25 to 750 mmoles/kg
From the text: In order to predict the therapeutic effect of the racemates in men, it is necessary to know how much the single enantiomers contribute to the global activity, using experimental models excluding metabolic bio-conversion. […] This model allows the contemporary evaluation of the inhibition of oedema formation and of hyperalgesia.

[7] = gastric ulcer-inducing properties in rats (ulcer score); format: in vivo; conditions: rat; for ulcer score: 40 mmoles/kg
From the text: Guinea-pigs are a species naturally resistant to the gastrolesive action of NSAIDs, so that it is not possible to compare the two enantiomers in respect to this parameter in this species, unless using very high doses, having no predictive value. To this purpose, rats are necessarily, again, the chosen species, although the least suitable. […] The differences among the enantiomers and the racemate were statistically significant starting from the dose of […]: at this dose an "ulcer score" of 2 was evaluated for the (R) enantiomer, compared with "ulcer scores" of 3 and 4 for the racemate and the (S) enantiomer, respectively.

[8] = test system: mouse peritoneal macrophages; experiment: lipopolysaccharide-stimulated IL-1b release from mouse peritoneal macrophages; format: cell-based; conditions: for minimal effective concentration: Mus musculus, Peritoneal macrophage, read-out: concentration of statistically significant stimulation of IL-1b formation
[9] = test system: Neutrophils; conditions: 10^-6 M, 10 min 37° C; FIG. 2, ** p<0.01
From the text: Results are expressed as the mean ±SD from 3 separated trials (** p<0.01 against each group).

[10] = test system: oedema formation; conditions: for inhibition of oedema formation: 25 to 750 mmoles/kg
[11] = test system: oedema formation; experiment: animal or person; conditions: Cavia porcellus, read-out: dose from which oedema inhibition is statistically significant
[12] = test system: neutrophil; conditions: Ca^++ ionophore and FLMP; cited from earlier work
[13] = test system: MCP-1 and IL-8 release; conditions: comparative study; cited from earlier work
[14] = test system: PMN neutrophils; conditions: FLMP-stimulated vs other agonist-stimulated; cited from earlier work
[15] = test system: carrageenin-induced pleural exudate; PMN cell migration; conditions: oral, cited from earlier work; for migration of cells into the pleural cavity: PMN cells vs monocytes, thought in 1975
[16] = test system: human synovial cells; conditions: stimulated by interleukin-1 and TNF-a; cited from earlier work
[17] = test system: mouse peritoneal macrophages; experiment: lipopolysaccharide-stimulated TNF-a release from mouse peritoneal macrophages; format: cell-based; conditions: LPS-stimulated; 10^-9 -10^-5 M
[18] = men, cited from earlier work
[19] = rats; in words; cited from earlier work
[20] = test system: TXB2 synthesis; experiment: TXB2 synthesis inhibition in human blood; format: cell-based; conditions: index of platelet antiaggregating properties
[21] = test system: ultra-violet radiation-induced epidermal erythema; conditions: topic; guinea pigs; cited from earlier work
[22] = test system: interleukin IL-8 production; conditions: reduced from 53.8 pg/ml, p<0.1, cited from earlier work
[23] = guinea-pigs; cited from earlier work
[24] = test system: pain perception; conditions: men; compared with (S) enantiomers; cited from earlier work

## C[C@H](C(=O)O)c1cccc(C(=O)c2ccccc2)c1 [(S)-ketoprofen L-lysine salt]
[1]; drug 10^-6 M
  [Ca^++ ]i (% ± SEM): 163 ± 18%
[1]; drug 10^-7 M
  [Ca^++ ]i (% ± SEM): 199 ± 13%
[1]; drug 10^-8 M
  [Ca^++ ]i (% ± SEM): 183 ± 5%
[1]; drug 10^-9 M
  [Ca^++ ]i (% ± SEM): 289 ± 19%
[2]
  La^+++ + IL-8 [Ca^++ ]i (% ± SEM): 166 ± 7%
[3]
  FMLP [Ca^++ ]i (% ± SEM): 214 ± 13%
[4]
  C5a [Ca^++ ]i (% ± SEM): 150 ± 4%
  percent of non responsive cells: 50%
[5]
  inhibitory effect on human PMN neutrophil degranulation (elastase release): specific inhibitory effects
[6]
  inhibitory effect on hyperalgesia: only a slight inhibitory effect on hyperalgesia
[6]; Cavia porcellus, read-out: dose with statistically significant inhibition of hyperalgesia
  minimal effective dose: 750000 µmol/kg
[7]
  ulcer score: 4
[8]
  minimal effective concentration: 10 µM
[9]
  inhibitory effect on IL-8-stimulated chemotactic migration: specific inhibitory effects
[10]; dose range 25 to 750 mmoles/kg
  dose of maximal effect on oedema formation: 250 mmol/kg
[11]
  minimal effective dose: 75000 µmol/kg

## COC(=O)C1=C(C)NC(C)=C(C(=O)OC)C1c1ccccc1[N+](=O)[O-] [nifedipine]
[12]
  inhibition of neutrophil activation / blockade of Ca^++ ion entry: completely inactive

## C[C@@H]1C[C@H]2[C@@H]3CCC4=CC(=O)C=C[C@]4(C)[C@@]3(F)[C@@H](O)C[C@]2(C)[C@@]1(O)C(=O)CO [dexamethasone]
[13]
  inhibition of release of MCP-1 and IL-8: in an optimal manner

## CC(C(=O)O)c1cccc(C(=O)c2ccccc2)c1 (racemic) [racemic ketoprofen L-lysine salt]
[6]
  inhibitory effect on hyperalgesia: constantly intermediate between those evaluated for the two enantiomers
[7]
  ulcer score: 3
[8]
  minimal effective concentration: 10 µM
[10]
  inhibition of oedema formation: constantly intermediate between those evaluated for the two enantiomers

## CC(C)C[C@H](NC(=O)OCC1c2ccccc2-c2ccccc21)C(=O)O [NPC-15669, N-Fmoc-L-leucine]
[14]
  [Ca^++ ]i increase in PMN neutrophils: inhibited FLMP-stimulated, but not other agonist-stimulated [Ca^++ ]i increase

## CN1C(C(=O)Nc2nccs2)=C(O)c2ccccc2S1(=O)=O [sudoxicam]
[15]
  migration of cells into the pleural cavity: inhibit the migration of PMN cells, but not that of monocytes
  carrageenin-induced formation of pleural exudate: inhibited

## O=C([O-])CC(S)C(=O)[O-].[Na+].[Na+] (stereo not drawn) [sodium thiomalate]
[13]
  inhibition of release of MCP-1 and IL-8: in a sub-optimal manner

## O=C(O)c1ccccc1Nc1cccc(C(F)(F)F)c1 [flufenamic acid]
[12]
  inhibition of neutrophil activation / blockade of Ca^++ ion entry: inhibition of neutrophil activation

## CC(C(=O)O)c1ccc(-c2ccccc2)c(F)c1 (racemic) [flurbiprofen, 3-fluoro-4-phenylhydratropic acid]
[15]
  migration of cells into the pleural cavity: inhibit the migration of PMN cells, but not that of monocytes
  carrageenin-induced formation of pleural exudate: inhibited

## COc1ccc2c(c1)c(CC(=O)O)c(C)n2C(=O)c1ccc(Cl)cc1 [indomethacin]
[15]
  migration of cells into the pleural cavity: inhibit the migration of PMN cells, but not that of monocytes
  carrageenin-induced formation of pleural exudate: inhibited
[16]
  IL-8 production in human synovial cells: not inhibited

## C[C@@H](C(=O)O)c1cccc(C(=O)c2ccccc2)c1 [(R)-ketoprofen L-lysine salt, (R)-2-(3-benzoylphenyl)propionic acid]
[1]; drug 10^-6 M
  [Ca^++ ]i (% ± SEM): 182 ± 15%
[1]; drug 10^-7 M
  [Ca^++ ]i (% ± SEM): 193 ± 10%
[1]; drug 10^-8 M
  [Ca^++ ]i (% ± SEM): 188 ± 8%
[1]; drug 10^-9 M
  [Ca^++ ]i (% ± SEM): 364 ± 29%
[2]
  La^+++ + IL-8 [Ca^++ ]i (% ± SEM): 176 ± 7%
[3]
  FMLP [Ca^++ ]i (% ± SEM): 193 ± 6%
[4]
  C5a [Ca^++ ]i (% ± SEM): 153 ± 4%
  percent of non responsive cells: 50%
[5]
  inhibitory effect on human PMN neutrophil degranulation (elastase release): specific inhibitory effects
[6]
  inhibitory effect on hyperalgesia: marked, dose-dependent inhibitory effect on hyperalgesia
[6]; maximal at the highest dose
  doses with marked, dose-dependent inhibition of hyperalgesia: 75 to 250 mmol/kg
[7]
  ulcer score: 2
[7]; compared with (S) enantiomer
  ulcer-inducing properties: less ulcer-inducing properties
[17]
  effect on TNF-a release: completely ineffective
[8]; LPS-stimulated, 10^-9 -10^-5 M
  effect on IL-1b release: completely ineffective
[9]
  inhibitory effect on IL-8-stimulated chemotactic migration: specific inhibitory effects
[10]
  inhibition of oedema formation: significantly inhibited oedema formation
[11]
  minimal effective dose: 250000 µmol/kg

## CN(Cc1cnc2nc(N)nc(N)c2n1)c1ccc(C(=O)N[C@@H](CCC(=O)O)C(=O)O)cc1 [metotrexate]
[13]
  inhibition of release of MCP-1 and IL-8: in a sub-optimal manner

## CC(C)Cc1ccc([C@@H](C)C(=O)O)cc1 [(R)-ibuprofen, p-isobutylhydratropic acid]
[18]; in words
  conversion of (R) into (S) enantiomer: nearly completely converted
[19]
  conversion of (R) into (S) enantiomer: nearly completely converted

## Cc1c(Cl)cccc1Nc1ccccc1C(=O)O [tolfenamic acid]
[12]
  inhibition of neutrophil activation / blockade of Ca^++ ion entry: inhibition of neutrophil activation

## CC(C(=O)O)c1cccc(Oc2ccccc2)c1 (stereo not drawn) [fenofren]
[15]
  migration of cells into the pleural cavity: inhibit the migration of PMN cells, but not that of monocytes
  carrageenin-induced formation of pleural exudate: inhibited

## CC(C(=O)O)c1cccc(C(=O)c2ccccc2)c1 (racemic) [racemic ketoprofen]
[20]
  IC50: 420 ± 40 µM
[21]
  Protection, UV radiation-induced epidermal erythema: 56.1±3.1%
[22]; 100 mg/kg
  interleukin IL-8 production: 16.9 pg/mL
[22]; 200 mg/kg
  interleukin IL-8 production: 22.4 pg/mL

## CN1C(C(=O)Nc2ccccn2)=C(O)c2ccccc2S1(=O)=O [piroxicam]
[16]
  IL-8 production in human synovial cells: not inhibited

## C[C@@H](C(=O)O)c1ccc(-c2ccccc2)c(F)c1 [(R)-flurbiprofen, 3-fluoro-4-phenylhydratropic acid]
[23]
  conversion of (R) into (S) enantiomer: < 5%
[24]
  inhibition of pain perception: efficacy at least similar to that of the (S) enantiomers
[18]
  conversion of (R) into (S) enantiomer: < 5%
[19]
  conversion of (R) into (S) enantiomer: completely converted

## COc1ccc2cc([C@H](C)C(=O)O)ccc2c1 [naproxen]
[16]
  IL-8 production in human synovial cells: not inhibited

## C[C@H](C(=O)O)c1cccc(C(=O)c2ccccc2)c1 [(S)-ketoprofen]
[20]
  IC50: 160 ± 40 µM
[21]
  Protection, UV radiation-induced epidermal erythema: 73.4±4.0%

## CC(C(=O)O)c1ccc(C(=O)c2ccccc2)s1 (stereo not drawn) [thioprofenic acid]
[16]
  IL-8 production in human synovial cells: not inhibited
